Measurements published in patent EP1203584A1 (priority 2000, dated 2002).

Legend:
Assay type in all cases: in vivo, Male Wistar rats
[1] = system: immunoreactivity of the neuronal acetylcholine in the neurones of the magnocellular nucleus basalis (MNB) and in the corpus striatum; assay: Immunoreactivity of neuronal acetylcholine in MNB and corpus striatum neurones
[2] = target: T1, acetylcholinesterase (AChE) (Rattus norvegicus, UniProt P37136); assay: Activity of acetylcholinesterase in treated rats; conditions: choline alfoscerate alone, 150 mg/kg
T1 construct: Male Wistar rats were divided into 5 groups; from tissue; host or cells: Male Wistar rats
T1 sequence (P37136 32-614): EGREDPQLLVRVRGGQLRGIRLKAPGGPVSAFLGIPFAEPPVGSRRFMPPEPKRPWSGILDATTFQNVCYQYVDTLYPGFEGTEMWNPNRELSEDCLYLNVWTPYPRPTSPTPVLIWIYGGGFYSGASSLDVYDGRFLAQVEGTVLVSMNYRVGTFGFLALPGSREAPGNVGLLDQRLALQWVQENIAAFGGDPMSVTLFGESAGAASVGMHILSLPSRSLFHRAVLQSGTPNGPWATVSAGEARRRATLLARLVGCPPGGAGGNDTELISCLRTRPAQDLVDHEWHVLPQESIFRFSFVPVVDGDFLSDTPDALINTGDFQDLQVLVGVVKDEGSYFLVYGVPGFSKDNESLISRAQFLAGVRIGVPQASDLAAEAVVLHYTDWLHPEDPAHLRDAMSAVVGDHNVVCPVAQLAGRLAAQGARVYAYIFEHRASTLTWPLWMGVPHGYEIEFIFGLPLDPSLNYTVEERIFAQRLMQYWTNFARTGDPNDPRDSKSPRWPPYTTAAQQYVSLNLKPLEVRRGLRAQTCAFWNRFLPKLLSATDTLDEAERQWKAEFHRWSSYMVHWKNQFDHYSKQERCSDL

[3] = system: levels of acetylcholine in the cerebral cortex (frontal area), in the hippocampus and in the corpus striatum; assay: Levels of acetylcholine in rat brain areas after 1 week of treatment

Compound	immunoreactivity of the acetylcholine ([1]; rat, in vivo, 2.5 mg/kg)	effect on the activity of the AChE [2]	immunoreactivity of the acetylcholine ([1]; choline alfoscerate alone, 150 mg/kg, MNB neurones and interneurones of the corpus striatum, more marked in the MNB)	release of acetylcholine ([3]; 150 mg/kg choline alfoscerate, hippocampus and corpus striatum, reason for the choice of dose)	increase in the levels of acetylcholine, compared with rivastigmine ([3]; choline alfoscerate alone versus rivastigmine 2.5 mg/kg, frontal cerebral cortex, hippocampus, corpus striatum)	increased the levels of acetylcholine ([3]; choline alfoscerate alone, 150 mg/kg intraperitoneal, 1 week)
CCN(C)C(=O)Oc1cccc([C@H](C)N(C)C)c1 [rivastigmine]	increased in a similar fashion	–	–	–	–	–
C[N+](C)(C)CCOP(=O)([O-])OC[C@H](O)CO [choline alfoscerate]	–	did not show any effect	increased in a similar fashion	significantly increases	to the same extent as the dosage of the AchE inhibitor, rivastigmine	approximately 20%
